In patent publication US9062046B2, “Substituted imidazoquinoline derivatives as kinase inhibitors” (Piramal Enterprises Limited, priority 2011, dated 2015):

Legend:
[1] = tested on: A2780 (ovarian cell line); assay: Cytotoxicity assay (propidium iodide assay), A2780; type: cell-based; conditions: Homo sapiens, A2780 cells, 48 h treatment
Experimental: (§1) The assay was designed as in the reference, Anticancer Drugs, 2002, 13, 1-8, the disclosure of which is incorporated by reference for the teaching of the assay.
(§2) Cells from cell lines A2780 (ovarian cell line) and PC3 (prostate cell line) (both from ATCC) were seeded at a density of 3000 cells/well in a white opaque 96-well plate. Following incubation at 37° C./5% CO2 for a period of 18-24 h, the cells were treated with various concentrations (stock solution was prepared in DMSO and subsequent dilutions were made in media as per ATCC guidelines) of the test compounds for a period of 48 h. At the end of treatment, the culture medium was discarded, the cells were washed with 1×PBS and 200 μl of 7 μg/ml propidium iodide was added to each well. The plates were frozen at −70° C. overnight. For analysis, the plates were warmed to RT, allowed to thaw and were read in PoleStar fluorimeter with the fluorescence setting. The percentage of viable cells in the non-treated set of wells was considered to be 100 and the percentage viability following treatment was calculated accordingly. IC50 values were calculated from graphs plotted using these percentages.

PC3 (prostate cell line) = assay: Cytotoxicity assay (propidium iodide assay), PC3; type: cell-based; conditions: Homo sapiens, PC-3, PC3 cells, 48 h treatment
Experimental: as §1, §2

SMILES | inhibition at 1 µM [1] | inhibition at 1 µM (PC3 (prostate cell line)) | IC50 [1] | IC50 (PC3 (prostate cell line))
CC(=O)N(C(C)=O)c1ncc(-c2ccc3ncc4c(c3c2)n(-c2ccc(C(C)(C)C#N)cc2)c(=NC#N)n4C)cc1C(F)(F)F [Example 131, N-acetyl-N-(5-(2-(cyanoimino)-1-(4-(2-cyanopropan-2-yl)phenyl)-3-methyl-2,3-dihydro-1H-imidazo[4,5-c]quinolin-8-yl)-3-(trifluoromethyl)pyridin-2-yl)acetamide] | 30 to 70% | 30 to 70% | – | –
Cn1c(=NC#N)n(-c2ccc(C(C)(C)C#N)nc2)c2c3cc(-c4cccc(C(F)(F)F)c4)ccc3ncc21 [Example 69, N-(1-(6-(2-cyanopropan-2-yl)pyridin-3-yl)-3-methyl-8-(3-(trifluoromethyl)phenyl)-1H-imidazo[4,5-c]quinolin-2(3H)-ylidene)cyanamide] | ≥ 70% | 30 to 70% | – | –
Cn1c(=NC#N)n(-c2ccc(C(C)(C)C#N)nc2)c2c3cc(-c4cncc(CNC(=O)OC(C)(C)C)c4)ccc3ncc21 [Example 71, tert-butyl (5-(2-(cyanoimino)-1-(6-(2-cyanopropan-2-yl)pyridin-3-yl)-3-methyl-2,3-dihydro-1H-imidazo[4,5-c]quinolin-8-yl)pyridin-3-yl)methylcarbamate] | < 30% | < 30% | – | –
COC(=O)c1cc(-c2ccc3ncc4c(c3c2)n(-c2ccc(C(C)(C)C#N)nc2)c(=NC#N)n4C)cnc1N [Example 137, Methyl 2-amino-5-(2-(cyanoimino)-1-(6-(2-cyanopropan-2-yl)pyridin-3-yl)-3-methyl-2,3-dihydro-1H-imidazo[4,5-c]quinolin-8-yl)nicotinate] | – | – | ≤ 0.5 µM | ≤ 0.5 µM
Cn1c(=NC#N)n(-c2ccc3ncccc3c2)c2c3cc(-c4cnc(N)c(C(F)(F)F)c4)ccc3ncc21 [Example 11, N-(8-(6-amino-5-(trifluoromethyl)pyridin-3-yl)-3-methyl-1-(quinolin-6-yl)-1H-imidazo[4,5-c]quinolin-2(3H)-ylidene)cyanamide] | – | – | ≤ 0.5 µM | ≤ 0.5 µM
Cn1c(=NC#N)n(-c2ccc(C(C)(C)C#N)nc2)c2c3cc(-c4cnc(NCc5ccccc5)c(C(F)(F)F)c4)ccc3ncc21 [Example 138, N-(8-(6-(benzylamino)-5-(trifluoromethyl)pyridin-3-yl)-1-(6-(2-cyanopropan-2-yl)pyridin-3-yl)-3-methyl-1H-imidazo[4,5-c]quinolin-2(3H)-ylidene)cyanamide] | – | – | ≤ 0.5 µM | ≤ 0.5 µM
Cn1c(=NC#N)n(-c2cncc(-c3ccccc3)c2)c2c3cc(-c4cnc(N)c(C(F)(F)F)c4)ccc3ncc21 [Example 92, N-(8-(6-amino-5-(trifluoromethyl)pyridin-3-yl)-3-methyl-1-(5-phenylpyridin-3-yl)-1H-imidazo[4,5-c]quinolin-2(3H)-ylidene)cyanamide] | – | – | ≤ 0.5 µM | ≤ 0.5 µM
CC(C)Oc1ccccc1-c1ccc2ncc3c(c2c1)n(-c1ccc(C(C)(C)C#N)nc1)c(=NC#N)n3C [Example 65, N-(1-(6-(2-cyanopropan-2-yl)pyridin-3-yl)-8-(2-isopropoxyphenyl)-3-methyl-1H-imidazo[4,5-c]quinolin-2(3H)-ylidene)cyanamide] | < 30% | < 30% | – | –
COc1cc(OC)cc(-n2c(=NC#N)n(C)c3cnc4ccc(-c5cccnc5)cc4c32)c1 [Example 102, N-(1-(3,5-dimethoxyphenyl)-3-methyl-8-(pyridin-3-yl)-1H-imidazo[4,5-c]quinolin-2(3H)-ylidene)cyanamide] | ≥ 70% | < 30% | – | –
COc1ccc(-n2c(=NC#N)n(C)c3cnc4ccc(-c5ccc6cccnc6c5)cc4c32)cn1 [Example 26, N-(1-(6-methoxypyridin-3-yl)-3-methyl-8-(quinolin-7-yl)-1H-imidazo[4,5-c]quinolin-2(3H)-ylidene)cyanamide] | ≥ 70% | 30 to 70% | – | –
COc1ncc(-c2ccc3ncc4c(c3c2)n(-c2cncc(-c3ccccc3)c2)c(=NC#N)n4C)cc1N [Example 93, N-(8-(5-amino-6-methoxypyridin-3-yl)-3-methyl-1-(5-phenylpyridin-3-yl)-1H-imidazo[4,5-c]quinolin-2(3H)-ylidene)cyanamide] | – | – | 0.5 to 2 µM | 0.5 to 2 µM
COc1ccc(-n2c(=NC#N)n(C)c3cnc4ccc(-c5ccc6ncccc6c5)cc4c32)c(OC)c1 [Example 103, N-(1-(2,4-dimethoxyphenyl)-3-methyl-8-(quinolin-6-yl)-1H-imidazo[4,5-c]quinolin-2(3H)-ylidene)cyanamide] | – | – | ≤ 0.5 µM | ≤ 0.5 µM
COc1ccc(-n2c(=NC#N)n(C)c3cnc4ccc(-c5cccc(O)c5)cc4c32)cn1 [Example 38, N-(8-(3-hydroxyphenyl)-1-(6-methoxypyridin-3-yl)-3-methyl-1H-imidazo[4,5-c]quinolin-2(3H)-ylidene)cyanamide] | ≥ 70% | 30 to 70% | – | –
COc1ccc(-c2ccc3ncc4c(c3c2)n(-c2ccc(C(C)(C)C#N)nc2)c(=NC#N)n4C)cc1OC [Example 66, N-(1-(6-(2-cyanopropan-2-yl)pyridin-3-yl)-8-(3,4-dimethoxyphenyl)-3-methyl-1H-imidazo[4,5-c]quinolin-2(3H)-ylidene)cyanamide] | ≥ 70% | ≥ 70% | – | –
Cn1c(=NC#N)n(-c2ccc(C(C)(C)C#N)nc2)c2c3cc(-c4cnc(NC(=O)OC(C)(C)C)c(C(F)(F)F)c4)ccc3ncc21 [Example 122, tert-butyl 5-(2-(cyanoimino)-1-(6-(2-cyanopropan-2-yl)pyridin-3-yl)-3-methyl-2,3-dihydro-1H-imidazo[4,5-c]quinolin-8-yl)-3-(trifluoromethyl)pyridin-2-ylcarbamate] | ≥ 70% | 30 to 70% | – | –
COc1ccc(-n2c(=NC#N)n(C)c3cnc4ccc(-c5cnc(N)c(C(F)(F)F)c5)cc4c32)c(OC)n1 [Example 98, N-(8-(6-amino-5-(trifluoromethyl)pyridin-3-yl)-1-(2,6-dimethoxypyridin-3-yl)-3-methyl-1H-imidazo[4,5-c]quinolin-2(3H)-ylidene)cyanamide] | ≥ 70% | ≥ 70% | – | –
COc1cc(-c2ccc3ncc4c(c3c2)n(-c2ccc(C(C)(C)C#N)cc2)c(=NC#N)n4C)cc(OC)c1OC [Example 88, N-(1-(4-(2-cyanopropan-2-yl)phenyl)-3-methyl-8-(3,4,5-trimethoxyphenyl)-1H-imidazo[4,5-c]quinolin-2(3H)-ylidene)cyanamide] | ≥ 70% | 30 to 70% | – | –
COc1cc(OC)cc(-n2c(=NC#N)n(C)c3cnc4ccc(-c5cnc(N)c(C(F)(F)F)c5)cc4c32)c1 [Example 97, N-(8-(6-amino-5-(trifluoromethyl)pyridin-3-yl)-1-(3,5-dimethoxyphenyl)-3-methyl-1H-imidazo[4,5-c]quinolin-2(3H)-ylidene)cyanamide] | ≥ 70% | ≥ 70% | – | –
Cn1c(=NC#N)n(-c2ccc(C(C)(C)C#N)nc2)c2c3cc(-c4cccc5ccccc45)ccc3ncc21 [Example 82, N-(1-(6-(2-cyanopropan-2-yl)pyridin-3-yl)-3-methyl-8-(naphthalen-1-yl)-1H-imidazo[4,5-c]quinolin-2(3H)-ylidene)cyanamide] | 30 to 70% | < 30% | – | –
COc1ccc(-n2c(=NC#N)n(C)c3cnc4ccc(-c5cnccc5F)cc4c32)cn1 [Example 39, N-(8-(4-fluoropyridin-3-yl)-1-(6-methoxypyridin-3-yl)-3-methyl-1H-imidazo[4,5-c]quinolin-2(3H)-ylidene)cyanamide] | 30 to 70% | 30 to 70% | – | –
Cn1c(=NC#N)n(-c2ccc(OC(F)(F)F)cc2)c2c3cc(-c4cccnc4)ccc3ncc21 [Example 108, N-(3-methyl-8-(pyridin-3-yl)-1-(4-(trifluoromethoxy)phenyl)-1H-imidazo[4,5-c]quinolin-2(3H)-ylidene)cyanamide] | – | – | ≤ 0.5 µM | 0.5 to 2 µM
Cn1c(=NC#N)n(-c2ccc(C(C)(C)C#N)cc2)c2c3cc(-c4ccc(N5CCOCC5)nc4)ccc3ncc21 [Example 90, N-(1-(4-(2-cyanopropan-2-yl)phenyl)-3-methyl-8-(6-morpholinopyridin-3-yl)-1H-imidazo[4,5-c]quinolin-2(3H)-ylidene)cyanamide] | ≥ 70% | 30 to 70% | – | –
Cn1c(=NC#N)n(-c2ccc(C(C)(C)C#N)nc2)c2c3cc(-c4ccc(O)cc4)ccc3ncc21 [Example 50, N-(1-(6-(2-cyanopropan-2-yl)pyridin-3-yl)-8-(4-hydroxyphenyl)-3-methyl-1H-imidazo[4,5-c]quinolin-2(3H)-ylidene)cyanamide] | ≥ 70% | 30 to 70% | – | –
COc1ccc(-n2c(=NC#N)n(C)c3cnc4ccc(-c5ccc(OC)c(OC)c5)cc4c32)cn1 [Example 36, N-(8-(3,4-dimethoxyphenyl)-1-(6-methoxypyridin-3-yl)-3-methyl-1H-imidazo[4,5-c]quinolin-2(3H)-ylidene)cyanamide] | ≥ 70% | ≥ 70% | – | –
COc1ccc(-n2c(=NC#N)n(C)c3cnc4ccc(-c5ccccc5C)cc4c32)cn1 [Example 34, N-(1-(6-methoxypyridin-3-yl)-3-methyl-8-o-tolyl-1H-imidazo[4,5-c]quinolin-2(3H)-ylidene)cyanamide] | < 30% | < 30% | – | –
